Results as given in PubChem BioAssay (NCI).
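Protocol summary: plate cells (96-well), add compound at 5 concentrations, incubate 48 h, interpolate endpoints linearly. Abbreviation: GI50, concentration required for 50% inhibition of growth. Definition used: TGI = concentration required for complete inhibition of growth.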 Where a SMILES comes first, the peptide text is derived from it. [ ]: non-standard residue; d: D form. The star is where a group is joined. Octanoyl = CCCCCCCC(=O)*; Aib = CC(C)(N)C(=O)O; tBu = CC(C)(C)*

Key:
Test in all cases: NCI tumour cell line growth inhibition, 48 h
[1] = test system: UACC-62 melanoma
[2] = test system: SF-268 CNS
[3] = test system: RPMI-8226 leukemia
[4] = test system: OVCAR-8 ovarian
[5] = test system: K-562 leukemia
[6] = test system: LOX IMVI melanoma
[7] = test system: SK-OV-3 ovarian
[8] = test system: T-47D breast
[9] = test system: SW-620 colon
[10] = test system: HS 578T breast
[11] = test system: SNB-75 CNS
[12] = test system: 786-0 renal
[13] = test system: MDA-N
[14] = test system: SNB-19 CNS
[15] = test system: DU-145 prostate
[16] = test system: SK-MEL-28 melanoma

SMILES	TGI [1] [µM]	TGI [2] [µM]	TGI [3] [µM]	TGI [4] [µM]	TGI [5] [µM]	TGI [6] [µM]	TGI [7] [µM]	TGI [8] [µM]	TGI [9] [µM]	TGI [10] [µM]	TGI [11] [µM]	TGI [12] [µM]	TGI [13] [µM]	TGI [14] [µM]	TGI [15] [µM]	TGI [16] [µM]	GI50 [1] [µM]	GI50 [2] [µM]	GI50 [11] [µM]
O=c1[nH]nc(Cc2ccc(Cl)cc2)n1/N=C\CC/C=N\n1c(Cc2ccc(Cl)cc2)n[nH]c1=O	45.7	37.9	> 100	37	> 100	> 100	> 100	> 100	> 100	36.5	23.1	> 53.5	> 100	> 92.8	> 100	96.9			
CC1CCC2C(C(=O)O[C@H]3C4CCO[C@@H](OC5OC(CO)C(O)C(O)C5O)C4[C@@]4(CO)O[C@@H]34)=CO[C@@H](OC3OC(CO)C(O)C(O)C3O)C12 (some centres not stated)	> 10	> 10	> 10	> 10	> 10	> 10	> 10	> 10	> 10	> 10	> 10	> 10	> 10	> 10	> 10	> 10			
O=c1oc2ccc3ccccc3c2cc1-c1nc2ccccc2o1	> 100	48.4	> 63.4	51.2	> 100	32.8	> 54.4	39.7	55.1	> 68.8	40.7	42.2	> 54.4	> 46.6	> 52.3	> 59.2			
CN(C)c1ccc(/C=C(\NC(=O)c2ccccc2)C(=O)NC(CCC(=O)O)C(=O)O)cc1 (configuration not stated)	> 100	> 100	> 100	> 100	> 100	> 100	> 100	> 100	> 100	> 100	> 100	> 100	> 100	> 100	> 100	> 100			
CCCCCCCC(=O)NC(C)(C)C(=O)NC(COC(C)(C)C)C(=O)NC(CC(C)C)C(=O)NC(C)(C)C(=O)NC(COC(C)(C)C)C(=O)NC(COC(C)(C)C)C(=O)NC(CC(C)C)C(=O)NC(C)(C)C(=O)NC(COC(C)(C)C)C(=O)NC(C(=O)NC(CC(C)C)C(=O)OC)C(C)CC (configuration not stated) (Octanoyl-[Aib]S(tBu)L[Aib]S(tBu)S(tBu)L[Aib]S(tBu)IL-OMe; configuration not given here)	23.7	> 25	11.2	> 25	> 25	10.6	> 25	23.5	> 25	> 25	16.4	23.4	> 25	> 25	> 25	> 25			
O=[N+]([O-])O.[Ga]	> 10000	> 10000	2270	> 7940	> 8480	> 8240	390	> 9010	> 10000	> 10000	> 7110	> 10000	> 10000	> 10000	> 10000	> 10000	892	3000	1250
Cn1c2ccccc2c(=NNc2ccccc2C(=O)O)c2ccccc21	54	56.3	53.3	66.2	28.5	25.6	71.1	88.3	84.8	83.1	67	> 100	46.4	> 100	> 100	57.5			
COc1cc([N+](=O)[O-])ccc1NC1=CC(=O)CCC1	> 100	> 100	> 100	> 100	> 100	> 100	> 100	> 100	> 100	> 100	> 100	> 100	> 100	> 100	> 100	> 100			
CNC(=O)CCCN(C)C(=O)CCCCC(=O)N(C)C	> 100	> 100	> 100	> 100	> 100	> 100	> 100	> 100	> 100	> 100	> 100	> 100	> 100	> 100	> 100	> 100			
CC(C)NC(=O)OCc1c(COC(=O)NC(C)C)n(C)c2c1ccc1ccccc12	2.92	6.2	3.92	4.5	> 20	2.6	22.2	1.48	2.4	7.12	7.11	2.5	4.22	3.74	14.4	5.75			
CCN(CC)CCCNc1nc2ccccc2c2[nH]c3ccc(OC)cc3c12	> 10	4.43	9.41	2.41	3.44	2.9	> 10	> 10	2.37	3.81	3.35	2.41	2.99	4.25	8.44	3.11			
CC(C)n1c2c([n+](C)c1/C=C/c1ccccc1)C(=O)c1ccccc1C2=O	0.644	1.01	8.96	1.96	9.61	0.971	1.07	0.61	1.21	7.8	1.48	8.11	0.686	0.784	0.948	1.6			
CC(C)NC(=O)OCCN=C1c2ccccc2CCc2ccccc21	40.8	80.7	43.2	> 100	59	72.7	85.4	66.1	> 100	78.3	> 100	> 100	39.8	66.8	88.9	40.3			
COc1ccc2[nH]c3c(c2c1)COc1ccccc1C3=O	> 100	> 100	> 100	> 100	> 100	> 100	> 100	> 100	> 100	> 100	> 100	> 100	> 100	> 100	> 100	> 100			
